This passage reports IC50 results from US9902728B2, “Pyrrolo and pyrazolopyrimidines as ubiquitin-specific protease 7 inhibitors” (Forma Therapeutics, Inc., priority 2014, dated 2018).

One test deals with T1, USP7 (Homo sapiens, UniProt Q93009).
T1 construct: USP7, construct USP7 (208-1102) 6*His, Viva Biotech; 6xHis (C); purchased Viva Biotech
T1 sequence (Q93009 208-1102): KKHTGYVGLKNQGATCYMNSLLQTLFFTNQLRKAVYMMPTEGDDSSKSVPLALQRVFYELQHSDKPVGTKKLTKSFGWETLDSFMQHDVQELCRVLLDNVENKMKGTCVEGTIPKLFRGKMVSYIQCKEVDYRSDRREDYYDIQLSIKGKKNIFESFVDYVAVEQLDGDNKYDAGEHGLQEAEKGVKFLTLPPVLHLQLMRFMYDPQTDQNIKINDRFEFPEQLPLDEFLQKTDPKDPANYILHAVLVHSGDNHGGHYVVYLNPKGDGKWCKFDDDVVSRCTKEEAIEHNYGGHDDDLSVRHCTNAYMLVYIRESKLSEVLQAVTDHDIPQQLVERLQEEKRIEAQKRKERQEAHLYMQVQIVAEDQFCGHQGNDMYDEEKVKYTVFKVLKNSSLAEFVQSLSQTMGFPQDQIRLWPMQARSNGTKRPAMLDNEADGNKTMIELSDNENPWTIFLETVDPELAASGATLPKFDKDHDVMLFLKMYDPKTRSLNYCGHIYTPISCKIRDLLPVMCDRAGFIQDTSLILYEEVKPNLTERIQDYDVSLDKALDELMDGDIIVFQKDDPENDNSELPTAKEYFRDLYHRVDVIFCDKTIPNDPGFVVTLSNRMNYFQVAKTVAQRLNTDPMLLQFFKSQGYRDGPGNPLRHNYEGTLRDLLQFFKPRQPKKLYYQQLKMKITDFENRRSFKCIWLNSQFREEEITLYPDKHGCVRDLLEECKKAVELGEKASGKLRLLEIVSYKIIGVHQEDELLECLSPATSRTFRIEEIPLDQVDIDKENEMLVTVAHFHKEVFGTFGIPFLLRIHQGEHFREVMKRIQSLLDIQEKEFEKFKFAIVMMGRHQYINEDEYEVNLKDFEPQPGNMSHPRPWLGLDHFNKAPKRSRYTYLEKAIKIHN
The test is described as follows: USP7 Assay A (Ubitquin-Rhodamine 110 Assay). The class given is biochemical. As to conditions: USP7 activity in USP7 assay A and B (table does not say which assay per compound); read-out: USP7_IC50. In outline:
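Ub-Rh110 cleavage in 20 mM Tris-HCl pH 8.0 with 1 mM GSH, 0.03% BGG, 0.01% Triton X-100; compound preincubated with enzyme 30 min before substrate.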
Consider `O=C(C1CCC(Oc2ccccn2)CC1)N1CCC(O)(Cn2cnc3c(ccn3-c3ccc(F)cc3)c2=O)CC1` (stereo not drawn) [Compound I-1038], for which the IC50 was less than 200 nM.

On to `O=c1c2cnn(-c3ccccc3)c2ncn1CC1(O)CCN(C(=O)[C@H]2CC[C@H](Nc3cccnc3F)CC2)CC1` [Compound I-1039b, Anti-5-((1-(4-((2-fluoropyridin-3-yl)amino)cyclohexane-1-carbonyl)-4-hydroxypiperidin-4-yl)methyl)-1-phenyl-1,5-dihydro-4H-pyrazolo[3,4-d]pyrimidin-4-one], for which the IC50 is less than 200 nM. Regarding `Cn1ccc(NC2CCC(C(=O)N3CCC(O)(Cn4cnc5c(ccn5-c5ccc(F)cc5)c4=O)CC3)CC2)n1` (stereo not drawn) [Compound I-1040], the IC50 was in the range of 1000 to 10000 nM.

Consider `Cn1ccc(NC2CCC(C(=O)N3CCC(O)(Cn4cnc5c(ccn5-c5ccc(F)cc5)c4=O)CC3)CC2)n1` (stereo not drawn) [Compound I-1041], for which the IC50 lay within 200 to 1000 nM.

Turning to `CC1(C(=O)N2CCC(O)(Cn3cnc4c(cnn4-c4cccc(-n5ccc(F)n5)c4)c3=O)CC2)CC1` [Compound I-1042], the IC50 was in the range of 200 to 1000 nM. Same read-out and setting: under `CC1(C(=O)N2CCC(O)(Cn3cnc4c(cnn4-c4ccc(-n5cc(C(F)(F)F)cn5)cc4)c3=O)CC2)CC1` [Compound I-1043] stands 200 to 1000 nM. For the compound `CC1(C(=O)N2CCC(O)(Cn3cnc4c(cnn4-c4ccc(-n5cc(Cl)cn5)cc4)c3=O)CC2)CC1` [Compound I-1045], the IC50 was less than 200 nM. On to `CC1(C(=O)N2CCC(O)(Cn3cnc4c(cnn4-c4cccc(OCC5CC(F)(F)C5)c4)c3=O)CC2)CC1` [Compound I-1046, 1-(3-((3,3-difluorocyclobutyl)methoxy)phenyl)-5-((4-hydroxy-1-(1-methylcyclopropane-1-carbonyl)piperidin-4-yl)methyl)-1,5-dihydro-4H-pyrazolo[3,4-d]pyrimidin-4-one], for which the IC50 was in the range of 200 to 1000 nM. Consider `CC1(C(=O)N2CCC(O)(Cn3cnc4c(cnn4-c4cccc(OC5CCC(F)(F)CC5)c4)c3=O)CC2)CC1` [Compound I-1047], for which the IC50 is less than 200 nM. For `C[C@@H](CC(=O)N1CCC(O)(Cn2cnc3c(cnn3-c3ccc(N4CC[C@@](C)(O)C4)cc3)c2=O)CC1)n1cccn1` [Compound I-1052], the IC50 lay within 200 to 1000 nM. Still for that read-out and setting: under `Cn1ccc(OC2CCC(C(=O)N3CCC(O)(Cn4cnc5c(ccn5-c5ccc(F)cc5)c4=O)CC3)CC2)n1` (stereo not drawn) [Compound I-1067] stands 200 to 1000 nM; under `O=C(C1CCC(NC2CC2)CC1)N1CCC(O)(Cn2cnc3c(cnn3-c3ccc(F)cc3)c2=O)CC1` (stereo not drawn) [Compound I-1072], 1000 to 10000 nM. Regarding `O=C(NC1CCC(C(=O)N2CCC(O)(Cn3cnc4c(cnn4-c4ccc(F)cc4)c3=O)CC2)CC1)C1CC1` (stereo not drawn) [Compound I-1075], the IC50 was in the range of 1000 to 10000 nM. For the compound `Cc1ncc(C(=O)N2CCC(O)(Cn3cnc4c(ccn4-c4ccc(F)cc4)c3=O)CC2)o1` [Compound I-1077], the IC50 was in the range of 200 to 1000 nM. For the compound `Cn1cc(C(=O)N2CCC(O)(Cn3cnc4c(ccn4-c4ccc(F)cc4)c3=O)CC2)cn1` [Compound I-1078], the IC50 lay within 200 to 1000 nM. As to `O=C(c1cnn(C2CC2)c1)N1CCC(O)(Cn2cnc3c(ccn3-c3ccc(F)cc3)c2=O)CC1` [Compound I-1079], the IC50 was 200 to 1000 nM. Same read-out and setting: under `CN1CCN(c2ncc(C(=O)N3CCC(O)(Cn4cnc5c(cnn5-c5ccc(Cl)cc5)c4=O)CC3)o2)CC1` [Compound I-1085] stands 1000 to 10000 nM.

`O=C(c1cnc(Oc2ccccn2)o1)N1CCC(O)(Cn2cnc3c(cnn3-c3ccc(Cl)cc3)c2=O)CC1` [Compound I-1086]: the IC50 fell in the range of 1000 to 10000 nM. Take `O=C(c1ccc(-n2cnnn2)cc1)N1CCC(O)(Cn2cnc3c(cnn3-c3ccc(Cl)cc3)c2=O)CC1` [Compound I-1087]: the IC50 lay within 200 to 1000 nM. Consider `O=C(c1ccc(-n2ccnc2)cc1)N1CCC(O)(Cn2cnc3c(cnn3-c3ccc(Cl)cc3)c2=O)CC1` [Compound I-1088], for which the IC50 is 200 to 1000 nM. Turning to `Cc1nnnn1-c1ccc(C(=O)N2CCC(O)(Cn3cnc4c(cnn4-c4ccc(Cl)cc4)c3=O)CC2)cc1` [Compound I-1089], the IC50 lay within 200 to 1000 nM. The same measure, in the same setting: under `O=C(c1ccc(-n2cncn2)cc1)N1CCC(O)(Cn2cnc3c(cnn3-c3ccc(Cl)cc3)c2=O)CC1` [Compound I-1090] stands 200 to 1000 nM; under `O=C(c1nnc(C2CC2)o1)N1CCC(O)(Cn2cnc3c(cnn3-c3ccc(Cl)cc3)c2=O)CC1` [Compound I-1091], 1000 to 10000 nM. As for `O=C(c1cn(C2CC2)cn1)N1CCC(O)(Cn2cnc3c(cnn3-c3ccc(Cl)cc3)c2=O)CC1` [Compound I-1092], the IC50 is 1000 to 10000 nM. With `O=C(c1ccn(C2CC2)n1)N1CCC(O)(Cn2cnc3c(cnn3-c3ccc(Cl)cc3)c2=O)CC1` [Compound I-1093], the IC50 was in the range of 1000 to 10000 nM. With `O=C(c1cnn(C2CC2)c1)N1CCC(O)(Cn2cnc3c(cnn3-c3ccc(Cl)cc3)c2=O)CC1` [Compound I-1095], the IC50 was in the range of 200 to 1000 nM. Consider `CN1CCC(Oc2ccc(C(=O)N3CCC(O)(Cn4cnc5c(cnn5-c5ccc(Cl)cc5)c4=O)CC3)cc2)CC1` [Compound I-1096], for which the IC50 was in the range of 1000 to 10000 nM. With `Cc1cnc(-c2ccc(C(=O)N3CCC(O)(Cn4cnc5c(cnn5-c5ccc(Cl)cc5)c4=O)CC3)cc2)n1C` [Compound I-1099], the IC50 fell in the range of 1000 to 10000 nM.

Regarding `Cc1ncc(-c2ccc(C(=O)N3CCC(O)(Cn4cnc5c(cnn5-c5ccc(Cl)cc5)c4=O)CC3)cc2)n1C` [Compound I-1101], the IC50 was in the range of 1000 to 10000 nM. For the compound `O=C(c1ocnc1Cc1ccccc1)N1CCC(O)(Cn2cnc3c(cnn3-c3ccccc3)c2=O)CC1` [Compound I-1108], the IC50 was more than 10000 nM. As for `Cc1snc(Cc2ccccc2)c1C(=O)N1CCC(O)(Cn2cnc3c(cnn3-c3ccc(F)cc3)c2=O)CC1` [Compound I-1110], the IC50 is less than 200 nM. For the compound `O=C(C1CCC(OC(F)F)CC1)N1CCC(O)(Cn2cnc3c(cnn3-c3ccc(F)cc3)c2=O)CC1` (stereo not drawn) [Compound I-1112], the IC50 was 1000 to 10000 nM.

For the compound `O=C(C1CCC(Oc2cnccn2)CC1)N1CCC(O)(Cn2cnc3c(cnn3-c3ccc(F)cc3)c2=O)CC1` (stereo not drawn) [Compound I-1113], the IC50 was less than 200 nM. On to `Cn1nccc1OC1CCC(C(=O)N2CCC(O)(Cn3cnc4c(cnn4-c4ccc(F)cc4)c3=O)CC2)CC1` (stereo not drawn) [Compound I-1114], for which the IC50 lay within 1000 to 10000 nM. The same measure, in the same setting: next, `CC1(COc2ccc(-n3ncc4c(=O)n(CC5(O)CCN(C(=O)C6(C)CC6)CC5)cnc43)cc2)COC1` [Compound I-1118]: less than 200 nM.

With `CC1(C(=O)N2CCC(O)(Cn3cnc4c(cnn4-c4ccc(OCC5(F)CCC5)cc4)c3=O)CC2)CC1` [Compound I-1119], the IC50 is less than 200 nM. In the case of `O=C(C1CCC(Oc2ccccn2)CC1)N1CCC(O)(Cn2cnc3c(ccn3-c3ccc(F)cc3)c2=O)CC1` (stereo not drawn) [Compound I-1124], the IC50 was less than 200 nM. As for `O=C(C[C@H](C(F)F)n1ccc(F)n1)N1CCC(O)(Cn2cnc3c(ccn3-c3ccc(F)cc3)c2=O)CC1` [Compound I-1125], the IC50 lay within 200 to 1000 nM.

On to `O=C(C[C@@H](C(F)F)n1ccc(F)n1)N1CCC(O)(Cn2cnc3c(ccn3-c3ccc(F)cc3)c2=O)CC1` [Compound I-1126], for which the IC50 was less than 200 nM. As for `O=C(C[C@H](C(F)F)n1cccn1)N1CCC(O)(Cn2cnc3c(cnn3-c3ccc(Cl)cc3)c2=O)CC1` [Compound I-1131], the IC50 is 1000 to 10000 nM. Same read-out and setting: next, `O=C(C[C@@H](C(F)F)n1cccn1)N1CCC(O)(Cn2cnc3c(cnn3-c3ccc(Cl)cc3)c2=O)CC1` [Compound I-1132]: 200 to 1000 nM. For the compound `CC1(C(=O)N2CCC(O)(Cn3cnc4c(cnn4-c4ccc(OCC5CC(F)(F)C5)cc4)c3=O)CC2)CC1` [Compound I-1133], the IC50 was less than 200 nM. `Cc1ncc(C(=O)N2CCC(O)(Cn3cnc4c(cnn4-c4ccc(OC5CCC(F)(F)CC5)cc4)c3=O)CC2)o1` [Compound I-1134]: the IC50 was in the range of 200 to 1000 nM. The same measure, in the same setting: under `Cc1ncc(C(=O)N2CCC(O)(Cn3cnc4c(cnn4-c4ccc(OCC5(F)CCC5)cc4)c3=O)CC2)o1` [Compound I-1135] stands less than 200 nM. `CC1(COc2ccc(-n3ncc4c(=O)n(CC5(O)CCN(C(=O)C6(C)CCC6)CC5)cnc43)cc2)COC1` [Compound I-1136]: the IC50 was less than 200 nM.

Staying with this test, now noted: USP7 assay A and B (table does not say which assay per compound); read-out: USP7_IC50.
For `Cc1ccc(-n2ncc3c(=O)n(CC4(O)CCN(C(=O)c5ccc(OC(F)F)cc5)CC4)cnc32)cc1` [Compound I-1058], the IC50 lay in the range of 200 to 1000 nM. On to `Cc1ccc(-n2ncc3c(=O)n(CC4(O)CCN(C(=O)C[C@H](C(F)F)n5cccn5)CC4)cnc32)cc1` [Compound I-1060], for which the IC50 is less than 200 nM. `Cc1ccc(-n2ncc3c(=O)n(CC4(O)CCN(C(=O)C[C@@H](C(F)F)n5cccn5)CC4)cnc32)cc1` [Compound I-1061]: the IC50 is 1000 to 10000 nM. Same read-out and setting: under `Cc1ccc(-n2ncc3c(=O)n(CC4(O)CCN(C(=O)c5ccc(Oc6ncccn6)cc5)CC4)cnc32)cc1` [Compound I-1063] stands 200 to 1000 nM. On the same count and under the same terms, next, `O=C(C1CC1)N1CCC(O)(Cn2cnc3c(cnn3-c3ccc(N4CCCc5ccccc54)cc3)c2=O)CC1` [Compound I-1082]: 1000 to 10000 nM. Same read-out and setting: under `O=C(CC(c1ccccc1)C(F)F)N1CCC(O)(Cn2cnc3c(cnn3-c3ccccc3)c2=O)CC1` (stereo not drawn) [Compound I-1102] stands less than 200 nM. For `O=C(C[C@@H](c1ccccc1)C(F)F)N1CCC(O)(Cn2cnc3c(cnn3-c3ccccc3)c2=O)CC1` [Compound I-1103], the IC50 is less than 200 nM. Same read-out and setting: next, `O=C(C[C@H](c1ccccc1)C(F)F)N1CCC(O)(Cn2cnc3c(cnn3-c3ccccc3)c2=O)CC1` [Compound I-1104]: 1000 to 10000 nM; `O=C(c1cccc(CN2CCCC2)c1)N1CCC(O)(Cn2cnc3c(cnn3-c3ccc(Cl)cc3)c2=O)CC1` [Compound I-1127]: 1000 to 10000 nM; `O=C(c1ccc(-n2ccnn2)cc1)N1CCC(O)(Cn2cnc3c(cnn3-c3ccc(Cl)cc3)c2=O)CC1` [Compound I-1128]: 200 to 1000 nM. Regarding `O=C(c1ccc(-n2nccn2)cc1)N1CCC(O)(Cn2cnc3c(cnn3-c3ccc(Cl)cc3)c2=O)CC1` [Compound I-1129], the IC50 was 1000 to 10000 nM. For the compound `O=C(c1cnc(C2CC2)o1)N1CCC(O)(Cn2cnc3c(cnn3-c3ccc(Cl)cc3)c2=O)CC1` [Compound I-1130], the IC50 was 200 to 1000 nM.
